From patent US12319664B2, “Herbicidally active 3-phenylisoxazoline-5-carboxamides of cyclopentenylcarboxylic acid derivatives” (Bayer Aktiengesellschaft, priority 2018, dated 2025)

Key:
AVEFA [1] = assay: Pre-emergence herbicidal action against AVEFA; assay type: in vivo, Avena fatua; settings: application rate 80 g/ha, scored visually after about 3 weeks vs untreated controls (100% = plants have died, 0% = like control plants)
Method in brief: (§1)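 Seeds sown in pots and covered with soil; compounds formulated as WP or EC were sprayed onto the soil surface as aqueous suspension/emulsion with 0.5% additive at 600 l/ha water. Greenhouse growth ~3 weeks, then visual % activity vs untreated controls (100% = plants dead, 0% = like control).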

SETVI [2] = assay: Post-emergence herbicidal action against SETVI; assay type: in vivo, Setaria viridis; settings: application rate 80 g/ha, rated visually after about 3 weeks
Method in brief: (§2)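 Spray-treated at one-leaf stage, 2 to 3 weeks after sowing; greenhouse, sandy loam. Formulation WP or EC, 0.5% additive, 600 l/ha. Readout: visual percent activity at about 3 weeks, untreated = 0%.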

POLCO [3] = assay: Pre-emergence herbicidal action against POLCO; assay type: in vivo, Polygonum convolvulus; settings: application rate 80 g/ha
Method in brief: as §1

STEME [4] = assay: Pre-emergence herbicidal action against STEME; assay type: in vivo, Stellaria media; settings: application rate 80 g/ha
Method in brief: as §1

LOLRI [5] = assay: Pre-emergence herbicidal action against LOLRI; assay type: in vivo, Lolium rigidum; settings: application rate 80 g/ha, scored visually after about 3 weeks vs untreated controls (100% = plants have died, 0% = like control plants)
Method in brief: as §1

AMARE [6] = assay: Pre-emergence herbicidal action against AMARE; assay type: in vivo, Amaranthus retroflexus; settings: application rate 80 g/ha
Method in brief: as §1

VIOTR [7] = assay: Pre-emergence herbicidal action against VIOTR; assay type: in vivo, Viola tricolor; settings: application rate 80 g/ha
Method in brief: as §1

LOLRI [8] = assay: Post-emergence herbicidal action against LOLRI; assay type: in vivo, Lolium rigidum; settings: application rate 80 g/ha, rated visually after about 3 weeks
Method in brief: as §2

SETVI [9] = assay: Pre-emergence herbicidal action against SETVI; assay type: in vivo, Setaria viridis; settings: application rate 80 g/ha, scored visually after about 3 weeks vs untreated controls (100% = plants have died, 0% = like control plants)
Method in brief: as §1

CYPES = assay: Pre-emergence herbicidal action against CYPES; assay type: in vivo; settings: application rate 80 g/ha, scored visually after about 3 weeks vs untreated controls (100% = plants have died, 0% = like control plants)
Source text: (§3) 1. Pre-emergence herbicidal action against harmful plants and crop plant compatibility Seeds of monocotyledonous and dicotyledonous weed plants and crop plants are placed in plastic or wood-fibre pots and covered with soil. The compounds of the invention, formulated in the form of wettable powders (WP) or as emulsion concentrates (EC), are then applied onto the surface of the covering soil as aqueous suspension or emulsion with addition of 0.5% additive at a water application rate of 600 l/ha (converted). After the treatment, the pots are placed in a greenhouse and kept under good growth conditions for the trial plants. After about 3 weeks, the effect of the preparations is scored visually in comparison with untreated controls as percentages. For example, 100% activity=the plants have died, 0% activity=like control plants.

ALOMY [10] = assay: Pre-emergence herbicidal action against ALOMY; assay type: in vivo, Alopecurus myosuroides; settings: application rate 80 g/ha, scored visually after about 3 weeks vs untreated controls (100% = plants have died, 0% = like control plants)
Method in brief: as §1

MATIN [11] = assay: Pre-emergence herbicidal action against MATIN; assay type: in vivo, Matricaria inodora; settings: application rate 80 g/ha, scored visually after about 3 weeks vs untreated controls (100% = plants have died, 0% = like control plants)
Source text: as §3, with “control plants. [table]” for “control plants.”

ECHCG [12] = assay: Pre-emergence herbicidal action against ECHCG; assay type: in vivo, Echinochloa crus-galli; settings: application rate 80 g/ha, scored visually after about 3 weeks vs untreated controls (100% = plants have died, 0% = like control plants)
Method in brief: as §1

POLCO [13] = assay: Post-emergence herbicidal action against POLCO; assay type: in vivo, Polygonum convolvulus; settings: application rate 80 g/ha, rated visually about 3 weeks after treatment
Method in brief: as §2

HORMU [14] = assay: Post-emergence herbicidal action against HORMU; assay type: in vivo, Hordeum murinum; settings: application rate 80 g/ha
Method in brief: as §2

STEME [15] = assay: Post-emergence herbicidal action against STEME; assay type: in vivo, Stellaria media; settings: application rate 80 g/ha, rated visually about 3 weeks after treatment
Method in brief: as §2

ALOMY [16] = assay: Post-emergence herbicidal action against ALOMY; assay type: in vivo, Alopecurus myosuroides; settings: application rate 80 g/ha, rated visually after about 3 weeks
Method in brief: as §2

PHBPU [17] = assay: Post-emergence herbicidal action against PHBPU; assay type: in vivo, Pharbitis purpurea; settings: application rate 80 g/ha, rated visually about 3 weeks after treatment
Method in brief: as §2

HORMU [18] = assay: Pre-emergence herbicidal action against HORMU; assay type: in vivo, Hordeum murinum; settings: application rate 80 g/ha
Method in brief: as §1

PHBPU [19] = assay: Pre-emergence herbicidal action against PHBPU; assay type: in vivo, Pharbitis purpurea; settings: application rate 80 g/ha
Method in brief: as §1

ECHCG [20] = assay: Post-emergence herbicidal action against ECHCG; assay type: in vivo, Echinochloa crus-galli; settings: application rate 80 g/ha, rated visually after about 3 weeks
Method in brief: as §2

AVEFA [21] = assay: Post-emergence herbicidal action against AVEFA; assay type: in vivo, Avena fatua; settings: application rate 80 g/ha, rated visually after about 3 weeks
Method in brief: as §2

VERPE [22] = assay: Post-emergence herbicidal action against VERPE; assay type: in vivo, Veronica persica; settings: application rate 80 g/ha
Method in brief: as §2

MATIN [23] = assay: Post-emergence herbicidal action against MATIN; assay type: in vivo, Matricaria inodora; settings: application rate 80 g/ha, rated visually about 3 weeks after treatment
Method in brief: as §2

VERPE [24] = assay: Pre-emergence herbicidal action against VERPE; assay type: in vivo, Veronica persica; settings: application rate 80 g/ha
Method in brief: as §1

ABUTH [25] = assay: Pre-emergence herbicidal action against ABUTH; assay type: in vivo, Abutilon theophrasti; settings: application rate 80 g/ha, scored visually after about 3 weeks vs untreated controls (100% = plants have died, 0% = like control plants)
Source text: as §3, with “control plants. [table]” for “control plants.”

AMARE [26] = assay: Post-emergence herbicidal action against AMARE; assay type: in vivo, Amaranthus retroflexus; settings: application rate 80 g/ha, rated visually about 3 weeks after treatment
Method in brief: as §2

VIOTR [27] = assay: Post-emergence herbicidal action against VIOTR; assay type: in vivo, Viola tricolor; settings: application rate 80 g/ha, rated visually about 3 weeks after treatment
Method in brief: as §2

ABUTH [28] = assay: Post-emergence herbicidal action against ABUTH; assay type: in vivo, Abutilon theophrasti; settings: application rate 80 g/ha, rated visually about 3 weeks after treatment
Method in brief: as §2

SMILES	Herbicidal action against [%] AVEFA (AVEFA [1]) [%]	Herbicidal action against [%] SETVI (SETVI [2]) [%]	Herbicidal action against [%] POLCO (POLCO [3]) [%]	Herbicidal action against [%] STEME (STEME [4]) [%]	Herbicidal action against [%] LOLRI (LOLRI [5]) [%]	Herbicidal action against [%] AMARE (AMARE [6]) [%]	Herbicidal action against [%] VIOTR (VIOTR [7]) [%]	Herbicidal action against [%] LOLRI (LOLRI [8]) [%]	Herbicidal action against [%] SETVI (SETVI [9]) [%]	Herbicidal action against [%] CYPES (CYPES) [%]	Herbicidal action against [%] ALOMY (ALOMY [10]) [%]	Herbicidal action against [%] MATIN (MATIN [11]) [%]	Herbicidal action against [%] ECHCG (ECHCG [12]) [%]	Herbicidal action against [%] POLCO (POLCO [13]) [%]	Herbicidal action against [%] HORMU (HORMU [14]) [%]	Herbicidal action against [%] STEME (STEME [15]) [%]	Herbicidal action against [%] ALOMY (ALOMY [16]) [%]	Herbicidal action against [%] PHBPU (PHBPU [17]) [%]	Herbicidal action against [%] HORMU (HORMU [18]) [%]	Herbicidal action against [%] PHBPU (PHBPU [19]) [%]	other results
CC1(C(=O)NC2C=CC(C(=O)NS(=O)(=O)C(F)(F)F)C2)CC(c2cccc(F)c2)=NO1 (mixture of isomers) [II-16]	80	80	90	100	100	90	80	80	80	100	100	80	100	–	–	–	–	–	–	–	–
COC(=O)[C@H]1C=C[C@@H](NC(=O)C2(C)CC(c3cccc(F)c3)=NO2)C1 (stereo partly drawn) [Example I-003, methyl (1R,4S)-4-[[[3-(3-fluorophenyl)-5-methyl-4H-1,2-oxazol-5-yl]carbonyl]amino]cyclopent-2-ene-1-carboxylate]	–	–	80	80	–	–	100	–	–	100	–	–	–	80	–	–	–	–	–	–	–
CCOC(=O)[C@@H]1C=C[C@H](NC(=O)C2(C)CC(c3cccc(F)c3)=NO2)C1 (stereo partly drawn) [Example I-006]	90	–	80	100	100	100	90	80	100	100	100	90	100	–	80	80	80	80	90	90	Herbicidal action against [%] ECHCG (ECHCG [20]): 80%; Herbicidal action against [%] AVEFA (AVEFA [21]): 80%
C=CC1(C(=O)NC2C=CC(C(=O)OCC)C2)CC(c2cc(F)cc(F)c2)=NO1 (stereo not drawn) [Example I-013]	100	90	90	100	100	100	100	90	100	–	100	100	100	90	90	80	80	80	100	90	Herbicidal action against [%] VERPE (VERPE [22]): 80%; Herbicidal action against [%] MATIN (MATIN [23]): 90%; Herbicidal action against [%] VERPE (VERPE [24]): 90%; Herbicidal action against [%] ABUTH (ABUTH [25]): 90%; Herbicidal action against [%] AMARE (AMARE [26]): 80%; Herbicidal action against [%] VIOTR (VIOTR [27]): 80%; Herbicidal action against [%] ECHCG (ECHCG [20]): 80%; Herbicidal action against [%] ABUTH (ABUTH [28]): 80%; Herbicidal action against [%] AVEFA (AVEFA [21]): 90%
